# Assay: Rate of degradation/transformation of compounds in solution (half-life for the transformation to the active moiety) at pH 2 and 7
# Assay type: physicochemical
# Conditions: water solution
# Experimental: Rate of degradation/transformation of compounds
# Half-life (mintues) for the
# transformation to the active moiety
# Also at neutral pH-values the degradation reaction proceeds rapidly, e.g. at pH=7 the half-life of degradation is between 10 minutes and 65 hours while at higher pH-values the stability in solution for most compounds is much better. The stability profile is similar in solid phase. The degradation is catalyzed by acid reacting substances. The acid labile compounds are stabilized in mixtures with alkaline reacting substances.
half-life (at pH = 2) [min],half-life (at pH = 7) [min],Compound
11,150,COC(=O)c1cc2nc([S+]([O-])Cc3ncccc3C)[nH]c2cc1C (centres unmarked)
5.4,1700,Cc1cnc(C[S+]([O-])c2nc3cc(C)ccc3[nH]2)c(C)c1 (centres unmarked)
1.9,122,COc1ccnc(C[S+]([O-])c2nc3cc(C(F)(F)F)ccc3[nH]2)c1 (centres unmarked)
2,8.8,COc1ccnc(C[S+]([O-])c2nc3cc(C(F)(F)F)ccc3[nH]2)c1C (centres unmarked)
3.7,1620,CCc1cnc(C[S+]([O-])c2nc3cc(OC)ccc3[nH]2)cc1Oc1ccccc1 (centres unmarked)
33,–,CCc1ccc2[nH]c([S+]([O-])Cc3nc4ccccc4n3C)nc2c1 (centres unmarked)

# — patent US4853230A, “Pharmaceutical formulations of acid labile substances for oral use” (priority 1986, dated 1989)
